Results from patent US20180021323A1, “FLIP - A SELECTIVE MOLECULAR TARGET OF SENESCENT CELLS” (BIOVENTURES, LLC, priority 2015, published 2018).

Assays:
FLIP mRNA = FLIP mRNA expression by qPCR in IR-induced senescent WI38 cells; format: cell-based, human; conditions: 10 μM, 6 h
Description: (§1) The expression of FLIP in normal (NC) and IR-induced senescent (SC) WI38 cells was determined by Western blot 24 h after they were treated with vehicle (VEH) or Drox (10 μM). Treatment with droxinostat (Drox) down-regulates the expression of FLIP mRNA in IR-induced senescent (SC) WI38 cells (FIG. 3B). IR-induced senescent (SC) WI38 cells were treated with vehicle (VEH) or Drox (10 μM) for 6 h and the expression of FLIP mRNA in these cells was determined by qPCR. […] Viable cells were determined 72 h after normal (NC) and IR-induced senescent (SC) WI38 cells were treated with vehicle (VEH) or increasing concentrations of Drox. The data are presented as a percentage of control cells treated with VEH. Treatment with droxinostat (Drox), piperlongumine (PL) and EF-24 down-regulates the expression of FLIP in IR-induced senescent (SC) WI38 cells (FIG. 3E). Normal (NC) and IR-induced senescent (SC) WI38 cells were treated with vehicle (VEH), Drox (10 μM), PL (10 μM), and EF-24 (10 μM) for 24 h and the expression of FLIP in these cells was determined by Western blots. […] Viable cells were determined 72 h after normal (NC) and IR-induced senescent (SC) WI38 cells were treated with vehicle (VEH) or increasing concentrations of Drox, PL, and EF-24. LD50 values for these molecules against NC and SC were calculated and presented.

FLIP = FLIP protein expression by Western blot in IR-induced senescent WI38 cells; format: cell-based, human; conditions: 10 μM, 24 h
Excerpt: Treatment with doxycycoline (DOX) dose-dependently induces FLIP-shRNA expression in WI38 cell line after the cells were stably transfected with a plasmid containing FLIP-shRNA and red fluorescent protein (RFP) genes (FIG. 2A). Induction of FLIP-shRNA by doxycycoline down-regulates FLIP expression in IR-induced senescent WI38 cells stably transfected with FLIP-shRNA but not in vector transfected cells (FIG. 2B).
as §1

normal (NC) WI38 cells = test: Cell viability of normal (NC) WI38 cells, 72 h treatment; format: cell-based; conditions: for LD50 (NC): normal (NC) WI38 cells, viable cells determined 72 h after treatment
Description: as §1, with “Treatment with droxinostat (Drox) down-regulates the expression of FLIP mRNA in IR-induced senescent (SC) WI38 cells (FIG. 3B).” left out, “Treatment with droxinostat (Drox), piperlongumine (PL) and EF-24 down-regulates the expression of FLIP in IR-induced senescent (SC) WI38 cells (FIG. 3E).” left out

[1] = test system: IR-induced senescent (SC) WI38 cells; test: Cell viability of IR-induced senescent (SC) WI38 cells, 72 h treatment; format: cell-based, human; conditions: for LD50 (SC): IR-induced senescent (SC) WI38 cells, viable cells determined 72 h after treatment; for killing of IR-induced senescent (SC) WI38 cells (viable cells, % of vehicle control): increasing concentrations, 72 h
Description: as §1

SMILES | expression of FLIP mRNA (qPCR, FIG. 3B) (FLIP mRNA) | expression of FLIP (Western blot, FIG. 3A) (FLIP) | expression of FLIP (Western blot, FIG. 3E) (FLIP) | effect on normal (NC) WI38 cells (viable cells, % of vehicle control) (normal (NC) WI38 cells; increasing concentrations, 72 h) | LD50 (NC) (normal (NC) WI38 cells) | LD50 (SC) [1] | killing of IR-induced senescent (SC) WI38 cells (viable cells, % of vehicle control) [1]
Cc1cc(Cl)ccc1OCCCC(=O)NO [Droxinostat, 4-(4-chloro-2-methylphenoxy)-N-hydroxybutanamide] | down-regulates | down-regulated | down-regulates | minimal effect | 39.58 µM | 8.26 µM | selectively kill
O=C1/C(=C/c2ccccc2F)CNC/C1=C\c1ccccc1F [EF-24] | – | – | down-regulates | – | 6.08 µM | 1.05 µM | selectively kill
COc1cc(/C=C/C(=O)N2CCC=CC2=O)cc(OC)c1OC [Piperlongumine, piperlongumine] | – | – | down-regulates | – | 24.25 µM | 7.05 µM | selectively kill
